Data as given in paper PMC4939597, “Mechanism for insulin-like peptide 5 distinguishing the homologous relaxin family peptide receptor 3 and 4” (Scientific Reports, 2016).
No end group written: not given here.

Legend:
human RXFP4 [1] = target: T1, human RXFP4 (Homo sapiens, UniProt Q8TDU9); test: Receptor binding assay, competition with NanoLuc-conjugated R3/I5 tracer; details: HEK293T cells transiently overexpressing human RXFP4, 0.5 nM NanoLuc-conjugated R3/I5 tracer, 21 °C, 2 h, mean ± SE, n = 3, SEM
T1 construct: expressed in transfected cells; host or cells: HEK293T
T1 sequence (Q8TDU9 whole entry): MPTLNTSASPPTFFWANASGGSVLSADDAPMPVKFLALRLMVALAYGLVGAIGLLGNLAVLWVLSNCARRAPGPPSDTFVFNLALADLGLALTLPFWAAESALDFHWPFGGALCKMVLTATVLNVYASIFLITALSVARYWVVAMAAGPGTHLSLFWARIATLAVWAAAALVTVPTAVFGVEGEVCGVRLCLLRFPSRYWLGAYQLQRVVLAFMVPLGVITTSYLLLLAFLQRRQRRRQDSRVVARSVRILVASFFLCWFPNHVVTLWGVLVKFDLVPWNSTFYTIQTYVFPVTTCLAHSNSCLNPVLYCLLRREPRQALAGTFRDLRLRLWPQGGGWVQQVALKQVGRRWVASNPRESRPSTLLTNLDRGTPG
Outline: (§1)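 HEK293T cells transiently expressing human RXFP3 or RXFP4 were incubated with 0.5 nM NanoLuc-conjugated R3/I5 tracer plus competitor in serum-free DMEM with 1% BSA, 2 h at 21 °C. Nonspecific binding used 1.0 μM human relaxin-3. After washing and lysis, bioluminescence was read and curves fitted sigmoidally (n = 3).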

human RXFP3 [2] = target: T2, human RXFP3 (Homo sapiens, UniProt Q9NSD7); test: as above; details: HEK293T cells transiently overexpressing human RXFP3, 0.5 nM NanoLuc-conjugated R3/I5 tracer, 21 °C, 2 h, mean ± SE, n = 3, SEM
T2 construct: expressed in transfected cells; host or cells: HEK293T
T2 sequence (Q9NSD7 1-469): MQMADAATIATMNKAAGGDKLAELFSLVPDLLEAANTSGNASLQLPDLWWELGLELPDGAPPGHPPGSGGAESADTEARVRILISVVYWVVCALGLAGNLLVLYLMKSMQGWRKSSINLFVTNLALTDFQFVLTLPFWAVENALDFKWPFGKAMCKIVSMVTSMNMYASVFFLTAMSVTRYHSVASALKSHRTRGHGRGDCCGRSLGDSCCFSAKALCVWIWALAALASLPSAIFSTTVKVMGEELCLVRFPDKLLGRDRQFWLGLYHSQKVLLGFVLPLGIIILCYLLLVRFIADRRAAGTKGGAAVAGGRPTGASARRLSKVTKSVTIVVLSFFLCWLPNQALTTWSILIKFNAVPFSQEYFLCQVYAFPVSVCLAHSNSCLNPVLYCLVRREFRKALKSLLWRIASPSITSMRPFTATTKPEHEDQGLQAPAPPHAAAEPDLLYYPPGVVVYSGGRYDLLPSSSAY
Outline: as §1

human RXFP4 [3] = target: T1, human RXFP4; test: Receptor activation assay, CRE-controlled NanoLuc reporter; format: cell-based; details: HEK293T cells cotransfected with human RXFP4 and CRE-controlled NanoLuc reporter, 1.0 μM forskolin, 37 °C, 4 h, mean ± SE, n = 3, SEM
human RXFP3 [4] = target: T2, human RXFP3; test: as above; format: cell-based

Row | Compound | IC50 (human RXFP4 [1]; read-out: pIC50 RXFP4 (converted)) | IC50 (human RXFP3 [2]; read-out: pIC50 RXFP3 (converted)) | EC50 (human RXFP4 [3]; read-out: pEC50 RXFP4 (converted)) | EC50 (human RXFP3 [4]; HEK293T cells cotransfected with human RXFP3 and CRE-controlled NanoLuc reporter, 1.0 μM forskolin, 37 °C, 4 h, mean ± SE, n = 3, N.D., not detectable, SEM, read-out: pEC50 RXFP3 (converted)) | pIC50 RXFP4 (human RXFP4 [1]) | pIC50 RXFP3 (human RXFP3 [2]) | pEC50 RXFP4 (human RXFP4 [3]) | activation potency towards RXFP3, result in words (human RXFP3 [4]; CRE-controlled NanoLuc reporter, HEK293T cells, human RXFP3)
1 | CC[C@H](C)[C@@H]1NC(=O)[C@H](Cc2ccccc2)NC(=O)[C@H](CCC(=O)O)NC(=O)[C@H](CCCNC(=N)N)NC(=O)CNC(=O)[C@@H](NC(=O)[C@H](CC(C)C)NC(=O)[C@H](CCCNC(=N)N)NC(=O)[C@@H](NC(=O)CNC(=O)[C@H](Cc2ccc(O)cc2)NC(=O)[C@@H]2CCCN2C(=O)[C@H](C)NC(=O)[C@H](C)NC(=O)[C@@H](N)CCCNC(=N)N)C(C)C)CSSC[C@@H]2NC(=O)[C@@H](NC(=O)[C@H](CO)NC(=O)[C@H](CO)NC(=O)[C@H](CO)NC(=O)[C@H](CC(C)C)NC(=O)CNC(=O)[C@H](C)NC(=O)[C@H](CC(C)C)NC(=O)[C@@H](NC(=O)[C@@H](N)CC(=O)O)C(C)C)CSSC[C@H](NC(=O)CNC(=O)[C@H](Cc3c[nH]c4ccccc34)NC(=O)[C@H](CCCCN)NC2=O)C(=O)N[C@@H](CO)C(=O)N[C@@H](CCCCN)C(=O)N[C@@H](CO)C(=O)N[C@@H](CCC(=O)O)C(=O)N[C@@H]([C@@H](C)CC)C(=O)N[C@@H](CO)C(=O)N[C@@H](CO)C(=O)N[C@@H](CC(C)C)C(=O)N[C@H](C(=O)O)CSSC[C@@H](C(=O)NCC(=O)NCC(=O)N[C@@H](CO)C(=O)N[C@@H](CCCNC(=N)N)C(=O)N[C@@H](Cc2c[nH]c3ccccc23)C(=O)O)NC(=O)[C@H]([C@@H](C)O)NC(=O)[C@H](Cc2ccccc2)NC(=O)[C@H]([C@@H](C)CC)NC(=O)[C@H](C(C)C)NC(=O)[C@H](C)NC(=O)[C@H](CCCNC(=N)N)NC1=O [relaxin-3, reference compound] | 12.3 nM | 2.04 nM | 0.105 nM | 0.0245 nM |  |  |  | 
2 | [I(B18)T]INSL5: recombinant mature two-chain INSL5 mutant (Insulin-like peptide INSL5 B … KESVRLCGLEYIRTVIYTCASSRW; Insulin-like peptide INSL5 A … QDLQTLCCTDGCSMTDLSALC; ends and bridges not checked; cysteine pairing not given here; UniProt Q9Y5Q6 23-46; Q9Y5Q6 115-135, looked up, variant I18T) |  |  |  |  | 7.43 ± 0.05 | 7.07 ± 0.04 | 9.31 ± 0.08 | no detectable activation potency
